Measurements from PubChem BioAssay AID1963969 (Molecular Pharmacology Branch, DTP, NCI, 2024).

System: 817829-284-R-J1-PDC multi-cell spheroid viability
Assay: Anticancer human tumor 817829-284-R-J1-PDC patient-derived colon adenocarcinoma cell line growth inhibition [PI3K]
Settings: for IC50: curve of first compound; for viability, T/C: stronger effect = lower value
Excerpt: Combinatorial screen of targeted agents with the PI3K inhibitors inavolisib, alpelisib, duvelisib, and copanlisib in multi-cell type tumor spheroids
A high-throughput screen of multi-cell type tumor spheroids was designed to identify active combinations of targeted small molecules and PI3K pathway inhibitors. Complex spheroids include a stromal component modeled by human endothelial cells (HUVEC) and fibroblasts modeled by human mesenchymal stem cells (MSCs). The concentration ranges selected for each drug and investigational agent were based upon clinically achievable concentrations if the clinical Cmax of the agent was known.
Compounds. The drugs and investigational agents: inavolisib (NSC800729), alpelisib (NSC765974), duvelisib (NSC772469), copanlisib (NSC816437), ipatasertib (NSC767898), afuresertib (NSC778305), talazoparib (NSC767125), sapanisertib (NSC764658), selumetinib (NSC741078), tovorafenib (DAY101, NSC766906), vemurafenib (NSC761431), ravoxertinib (NSC781343), sotorasib (NSC818433), MRTX1133 (NSC 836407), abemaciclib (NSC 768073), palbociclib (NSC758247), venetoclax (NSC 766270), SY5609 (NSC837396), enzalutamide (NSC755605), and darolutamide (NSC825331), were obtained from the National Cancer Institute (NCI) Developmental Therapeutics Program Chemical Repository. The FDA-approved anticancer drug set is available from the NCI Developmental Therapeutics Program. […] The stock solutions were prepared in dimethyl sulfoxide (DMSO, Sigma-Aldrich, St. Louis, MO, cat. D2650) at 800-fold the tested concentration and stored at -70 degrees C prior to their use. All drugs and investigational agents were tested over a range starting from a high concentration at or near the clinical Cmax and decreasing in half-log increments. If the clinical Cmax for an agent had not been determined, the highest concentration tested was 10 microM.
Cell Culture. All cells were maintained in an incubator at 37 degrees C and 5% CO2 with 95% humidity. The PDC lines were cultured according to standard operating procedures established by the NCI PDMR (https://pdmr.cancer.gov/sops/default.htm). All PDCs were thawed and cultured in Matrigel-coated flasks prepared with a working solution of 1X Ham's F-12 nutrient mix, without supplementation (Invitrogen, Waltham, MA, cat. 11765054), 100 U/mL penicillin-streptomycin (Invitrogen, cat. 15140122), and 2.5% Matrigel (Corning Inc., Corning, NY, cat. 354248) for the first three passages. The 354836-022-R-J1-PDC, 475296-252-R-J1-PDC, and 997726-040-R-J2-PDC lines were cultured in 6A media, which includes advanced DMEM/F-12 (Thermo Fisher Scientific, cat. 12634028), 10 mM HEPES (Thermo Fisher Scientific, cat. 15630080), 1X GlutaMAX supplement (Thermo Fisher Scientific, cat. 35050061), 0.1 mg/mL primocin (InvivoGen, San Diego, CA, cat. ant-pm-2), 10% defined fetal bovine serum, heat inactivated (HyClone Laboratories Inc., Logan, UT, cat. SH30070.03HI), 50% L-WRN conditioned media (ATCC, cat. CRL-3276), 1.25 mM N-Acetyl-L-cysteine (Sigma-Aldrich, cat. A9165), 10 mM nicotinamide (Sigma-Aldrich, cat. N0636), 1X B-27 supplement (Thermo Fisher Scientific, cat. 17504044), 1X N-2 supplement (Thermo Fisher Scientific, cat. 17502048), and 10 microM Y-27632 dihydrochloride (Tocris Bioscience, Bristol, United Kingdom, cat. 1254). The 624824-186-R-J2-PDC line was cultured in 6C/Colon 1B media, which includes all 6A media components plus 50 ng/mL human EGF recombinant protein (Thermo Fisher Scientific, cat. PHG0311). […]

[1] = second compound 0.00316 µM, first compound 0.000316 µM
[2] = second compound 0.00316 µM, first compound 0.001 µM
[3] = second compound 0.00316 µM, first compound 0.00316 µM
[4] = second compound 0.00316 µM, first compound 0.01 µM
[5] = second compound 0.00316 µM, first compound 0.0316 µM
[6] = second compound 0.00316 µM, first compound 0.1 µM
[7] = second compound 0.01 µM, first compound 0.000316 µM
[8] = second compound 0.01 µM, first compound 0.001 µM
[9] = second compound 0.01 µM, first compound 0.00316 µM
[10] = second compound 0.01 µM, first compound 0.01 µM
[11] = second compound 0.01 µM, first compound 0.0316 µM
[12] = second compound 0.01 µM, first compound 0.1 µM
[13] = second compound 0.0316 µM, first compound 0.000316 µM
[14] = second compound 0.0316 µM, first compound 0.001 µM
[15] = second compound 0.0316 µM, first compound 0.00316 µM
[16] = second compound 0.0316 µM, first compound 0.01 µM
[17] = second compound 0.0316 µM, first compound 0.0316 µM
[18] = second compound 0.0316 µM, first compound 0.1 µM
[19] = second compound 0.1 µM, first compound 0.000316 µM
[20] = second compound 0.1 µM, first compound 0.001 µM
[21] = second compound 0.1 µM, first compound 0.00316 µM
[22] = second compound 0.1 µM, first compound 0.01 µM
[23] = second compound 0.1 µM, first compound 0.0316 µM
[24] = second compound 0.1 µM, first compound 0.1 µM
[25] = second compound 0.316 µM, first compound 0.000316 µM
[26] = second compound 0.316 µM, first compound 0.001 µM
[27] = second compound 0.316 µM, first compound 0.00316 µM
[28] = second compound 0.316 µM, first compound 0.01 µM
[29] = second compound 0.316 µM, first compound 0.0316 µM
[30] = second compound 0.316 µM, first compound 0.1 µM
[31] = second compound 1 µM, first compound 0.000316 µM
[32] = second compound 1 µM, first compound 0.001 µM
[33] = second compound 1 µM, first compound 0.00316 µM
[34] = second compound 1 µM, first compound 0.01 µM
[35] = second compound 1 µM, first compound 0.0316 µM
[36] = second compound 1 µM, first compound 0.1 µM
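Further: spheroids exposed to agents for seven days before readout.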
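Wherever viability, T/C is given: percent of vehicle DMSO control viability which is 100%.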

CC(C)n1nc(-c2ccc3oc(N)nc3c2)c2c(N)ncnc21 + CC(Nc1ccc2c(c1)OCCn1cc(N3C(=O)OCC3C(F)F)nc1-2)C(N)=O
IC50 (second compound 0.00316 µM): 6.7 nM
IC50 (second compound 0.01 µM): 22.8 nM
IC50 (second compound 0.0316 µM): 8.64 nM
IC50 (second compound 0.1 µM): 4.55 nM
IC50 (second compound 0.316 µM): 4.35 nM
IC50 (second compound 1 µM): < 0.316 nM
viability, T/C [1]: 112%
viability, T/C [2]: 51.6%
viability, T/C [3]: 65.3%
viability, T/C [4]: 60.2%
viability, T/C [5]: 27.9%
viability, T/C [6]: 16.2%
viability, T/C [7]: 60.2%
viability, T/C [8]: 63.8%
viability, T/C [9]: 69.5%
viability, T/C [10]: 68.1%
viability, T/C [11]: 43.9%
viability, T/C [12]: 14.7%
viability, T/C [13]: 114%
viability, T/C [14]: 73.1%
viability, T/C [15]: 73.9%
viability, T/C [16]: 50.3%
viability, T/C [17]: 28.1%
viability, T/C [18]: 12.8%
viability, T/C [19]: 59.7%
viability, T/C [20]: 38.7%
viability, T/C [21]: 76.4%
viability, T/C [22]: 32%
viability, T/C [23]: 32.1%
viability, T/C [24]: 13.8%
viability, T/C [25]: 53.7%
viability, T/C [26]: 68.9%
viability, T/C [27]: 48.7%
viability, T/C [28]: 41.7%
viability, T/C [29]: 22.2%
viability, T/C [30]: 13.8%
viability, T/C [31]: 56.8%
viability, T/C [32]: 30.8%
viability, T/C [33]: 38.3%
viability, T/C [34]: 27.3%
viability, T/C [35]: 79.8%
viability, T/C [36]: 18.4%

CC1(C)CCC(CN2CCN(c3ccc(C(=O)NS(=O)(=O)c4ccc(NCC5CCOCC5)c([N+](=O)[O-])c4)c(Oc4cnc5[nH]ccc5c4)c3)CC2)=C(c2ccc(Cl)cc2)C1 + CC(Nc1ccc2c(c1)OCCn1cc(N3C(=O)OCC3C(F)F)nc1-2)C(N)=O
IC50 (second compound 0.00316 µM): 4080 nM
IC50 (second compound 0.01 µM): 3700 nM
IC50 (second compound 0.0316 µM): 2670 nM
IC50 (second compound 0.1 µM): 605 nM
IC50 (second compound 0.316 µM): 31.6 nM
IC50 (second compound 1 µM): 2790 nM
viability, T/C [5]: 74.4%
viability, T/C [6]: 87.8%
viability, T/C (second compound 0.00316 µM, first compound 0.316 µM): 38.3%
viability, T/C (second compound 0.00316 µM, first compound 1 µM): 71.4%
viability, T/C (second compound 0.00316 µM, first compound 3.16 µM): 62.4%
viability, T/C (second compound 0.00316 µM, first compound 10 µM): 5.89%
viability, T/C [11]: 55.4%
viability, T/C [12]: 64.8%
viability, T/C (second compound 0.01 µM, first compound 0.316 µM): 106%
viability, T/C (second compound 0.01 µM, first compound 1 µM): 69.1%
viability, T/C (second compound 0.01 µM, first compound 3.16 µM): 57.3%
viability, T/C (second compound 0.01 µM, first compound 10 µM): 5.49%
viability, T/C [17]: 66.2%
viability, T/C [18]: 107%
viability, T/C (second compound 0.0316 µM, first compound 0.316 µM): 60.8%
viability, T/C (second compound 0.0316 µM, first compound 1 µM): 65.3%
viability, T/C (second compound 0.0316 µM, first compound 3.16 µM): 49.8%
viability, T/C (second compound 0.0316 µM, first compound 10 µM): 6.29%
viability, T/C [23]: 78.9%
viability, T/C [24]: 54.8%
viability, T/C (second compound 0.1 µM, first compound 0.316 µM): 58.1%
viability, T/C (second compound 0.1 µM, first compound 1 µM): 39.4%
viability, T/C (second compound 0.1 µM, first compound 3.16 µM): 39.2%
viability, T/C (second compound 0.1 µM, first compound 10 µM): 3.75%
viability, T/C [29]: 45.7%
viability, T/C [30]: 44.6%
viability, T/C (second compound 0.316 µM, first compound 0.316 µM): 59.5%
viability, T/C (second compound 0.316 µM, first compound 1 µM): 41.2%
viability, T/C (second compound 0.316 µM, first compound 3.16 µM): 60.4%
viability, T/C (second compound 0.316 µM, first compound 10 µM): 3.08%
viability, T/C [35]: 77.2%
viability, T/C [36]: 44%
viability, T/C (second compound 1 µM, first compound 0.316 µM): 70.8%
viability, T/C (second compound 1 µM, first compound 1 µM): 59%
viability, T/C (second compound 1 µM, first compound 3.16 µM): 49%
viability, T/C (second compound 1 µM, first compound 10 µM): 6.25%

Cn1ncnc1[C@H]1c2n[nH]c(=O)c3cc(F)cc(c23)N[C@@H]1c1ccc(F)cc1 + CC(Nc1ccc2c(c1)OCCn1cc(N3C(=O)OCC3C(F)F)nc1-2)C(N)=O
IC50 (second compound 0.00316 µM): > 100 nM
IC50 (second compound 0.01 µM): 75 nM
IC50 (second compound 0.0316 µM): 10 nM
IC50 (second compound 0.1 µM): 47.7 nM
IC50 (second compound 0.316 µM): 12.1 nM
IC50 (second compound 1 µM): < 0.316 nM
viability, T/C [1]: 95.4%
viability, T/C [2]: 58.2%
viability, T/C [3]: 104%
viability, T/C [4]: 35%
viability, T/C [5]: 71.1%
viability, T/C [6]: 53%
viability, T/C [7]: 75.1%
viability, T/C [8]: 66%
viability, T/C [9]: 75%
viability, T/C [10]: 68.3%
viability, T/C [11]: 70.2%
viability, T/C [12]: 43.3%
viability, T/C [13]: 81.7%
viability, T/C [14]: 101%
viability, T/C [15]: 46.9%
viability, T/C [16]: 65%
viability, T/C [17]: 53.5%
viability, T/C [18]: 43.6%
viability, T/C [19]: 65.6%
viability, T/C [20]: 52.2%
viability, T/C [21]: 60.3%
viability, T/C [22]: 70.9%
viability, T/C [23]: 43%
viability, T/C [24]: 46.6%
viability, T/C [25]: 40.1%
viability, T/C [26]: 65.8%
viability, T/C [27]: 61.2%
viability, T/C [28]: 39.4%
viability, T/C [29]: 49.8%
viability, T/C [30]: 33.3%
viability, T/C [31]: 31.9%
viability, T/C [32]: 60.9%
viability, T/C [33]: 43.1%
viability, T/C [34]: 42.3%
viability, T/C [35]: 36.7%
viability, T/C [36]: 20.8%
